# Experimental data: US20250032460A1, “METHODS OF TREATING NEUROLOGICAL DISORDERS” (MapLight Therapeutics, Inc., priority 2021, published 2025)
# “Also recorded” adds a separate entry of the source.
# Key:
# [1] = system: Amphetamine-Induced Hyperlocomotion; assay: Compound 1 effect on amphetamine-induced hyperlocomotion (open field); assay type: in vivo, mice; settings: for average (mean) centimeters traveled over 30 minutes: open field, vehicle cohort 7500 cm
# Protocol: The hyperdopaminergic state underlying LID was modeled in naïve male wild-type c57/B16 mice by administration of d-amphetamine, a drug which rapidly elevates synaptic dopamine levels.
# A single dose of 3 mg/kg of intraperitoneal (IP) d-amphetamine was administered to 32 male wild-type c57/B16 mice at approximately 8-weeks of age. Subsequently, the animals were subdivided into 3 groups and co-administered either a single dose of intraperitoneal vehicle only, Compound 1 at 0.3 mg/kg, or Compound 1 at 1 mg/kg. The locomotor behavior of the animals in an open field chamber (44 cm×44 cm×20 cm dimension) was monitored using a video tracking system (Noldus EthoVision v15). Over 30 minutes, the average (mean) centimeters traveled (+standard deviation) identified were: • 7500 cm (±314.9) in vehicle cohort • 5141 cm (±805.6) in the Compound 1 0.3 mg/kg cohort ([…] one-way ANOVA followed by Tukey's multiple comparison) • 2008 cm (±406.2) in the Compound 1 1.0 mg/kg cohort (p <0.001)
# [2] = system: Compound 1 induced salivation; assay: Fesoterodine dose-response antagonistic effect on Compound 1 induced salivation in anaesthetized rats; assay type: in vivo, Sprague Dawley rats
# Protocol: An in vivo primary pharmacology study evaluating the fesoterodine fumarate dose-response antagonistic effect on Compound 1 induced salivation in anaesthetized male Sprague Dawley rats was conducted. […] Intravenous fesoterodine doses were administered at […]. Fesoterodine was dosed 10 minutes prior to dosage of Compound 1. All animals were normal with no observed abnormality detected in clinical signs or behavior. Salivation was measured by using oral dry swab in anesthetized rats with the calculated difference between the dry swab weight and the wet swab weight indicating the weight of saliva produced. Samples were collected post-dosing for one hour at 10-minute intervals.
# [3] = Clinical observations during 7-day oral dosing in beagle dogs; settings: Group 1: Compound 1 1.5 mg/kg/day PO, individual dog, 1.5 mg/kg/day
# [4] = Single ascending dose study with or without fesoterodine fumarate: safety and tolerability; assay type: in vivo, healthy adult volunteers
# Protocol: (§1) Compound 1 was administered in a single ascending dose (SAD) study conducted in approximately 54 healthy adult volunteers to investigate Compound 1 pharmacokinetics, safety, and tolerability. The study was conducted in two groups.
# Group 1 evaluated multiple dose cohorts administered Compound 1 in a single ascending dose (SAD) manner to establish a maximum tolerated dose (MTD) using the doses described in Table 10.
# (§2) MTD was established at the dose which produced mild to moderate cholinergic adverse effects. Cholinergic effects were monitored for each dose, including pupillometry and salivation.
# (§3) Group 2 evaluated tolerability of Compound 1 at Group 1 MTD with or without fesoterodine fumarate co-administration. Subjects received 8 mg of fesoterodine fumarate tablet or matched placebo tablet 4 hours prior to administration of 40 mg of Compound 1.
# MPTP-Induced Dyskinesia = assay: L-dopa-induced dyskinesia in MPTP-lesioned macaques; assay type: in vivo, cynomolgus macaques
# From the text: It is now used in non-human primates to model primary parkinsonian motor symptom phenotypes and subsequent response to therapies such as L-dopa including dyskinesia-thus it can be used as foundational model for LID. See Huat 2012. (Huot P, Johnston T H, Koprich J B, Fox S H, Brotchie J M. L-DOPA pharmacokinetics in the MPTP-lesioned macaque model of Parkinson's disease. Neuropharmacology. 2012 October; 63(5):829-36.) Having both face validity and construct validity, the MPTP non-human primate model is considered the animal model of PD motor symptoms with the highest translational relevance.
# A study was conducted in seven female MPTP-lesioned cynomolgus macaques that received chronic repeat treatment with L-dopa and in response manifested stable and reproducible dyskinesia that was choreic and dystonic in nature. Macaque behaviors were assessed following a single 1 mg/kg dose of Compound 1 or vehicle in combination with high-dose of L-dopa delivered as Madopar™ with a dose titrated for LID symptoms in each test animal. The ‘on time’ therapeutic effects and abnormal LID movements were assessed for 6 hours following administration of L-dopa. A single Compound 1 oral dose of 1 mg/kg or vehicle was administered at the same time as L-dopa at the start of behavioral observations. All animals received all treatments in a cross-over design with a minimum of 72 hours between repeat treatments in each animal. The therapeutic and LID behaviors were scored by trained raters supervised by a neurologist in a blinded fashion using high-definition video recordings and the non-human primate dyskinesia rating scale. See Fox 2012. (Fox S H, Johnston T H, Li Q, Brotchie J, Bezard E. A critique of available scales and presentation of the Non-Human Primate Dyskinesia Rating Scale. Mov Disord. 2012 Sep. 15; 27(11):1373-8.)
# salivation = assay: Single ascending dose study: salivation (pharmacodynamics); assay type: in vivo, healthy adult volunteers; settings: Group 1, 1-40 mg Compound 1 (FIG. 1)
# Protocol: as §2, §3
# [5] = Single ascending dose study: pharmacokinetics (plasma, CSF); assay type: in vivo
# Protocol: as §1, §3
# [6] = Compound 1 (1.5 mg/kg) IV alone
# [7] = Group 2: 40 mg Compound 1, 4 hours after 8 mg fesoterodine fumarate tablet or placebo tablet
# [8] = Compound 1 1 mg/kg PO with high-dose L-dopa, vs vehicle
# [9] = Group 2, 40 mg Compound 1, 8 mg fesoterodine fumarate
smiles,measurement,setting,value
"Cc1noc([C@@]23CNC[C@@H]2C3)n1 [Compound 1, 1-(3-methyl-[1,2,4]oxadiazol-5-yl)-(1R,5R)-3-aza-bicyclo[3.1.0]hexane]",effect on hyperdopaminergic-mediated motor behavior,"[1]; 0.3 and 1 mg/kg IP, d-amphetamine-treated mice",reverses hyperdopaminergic-mediated motor behavior in a dose-dependent manner
same,average (mean) centimeters traveled over 30 minutes,"[1]; Compound 1 0.3 mg/kg IP co-administered with d-amphetamine 3 mg/kg IP, p<0.5",5141 cm
same,average (mean) centimeters traveled over 30 minutes,"[1]; Compound 1 1.0 mg/kg IP co-administered with d-amphetamine 3 mg/kg IP, p <0.001",2008 cm
same,"Salivation (mg) (mean value), 10 min",[2]; [6],414.44 mg
same,"Salivation (mg) (mean value), 20 min",[2]; [6],126.95 mg
same,"Salivation (mg) (mean value), 30 min",[2]; [6],59.21 mg
same,"Salivation (mg) (mean value), 40 min",[2]; [6],61.22 mg
same,"Salivation (mg) (mean value), 50 min",[2]; [6],24.79 mg
same,"Salivation (mg) (mean value), 60 min",[2]; [6],22.15 mg
same,"Salivation (mg) (mean value), Total",[2]; [6],708.76 mg
same,effect on salivation compared to 0.9% saline vehicle control,[2]; Compound 1 IV alone,significant effect in increase in salivation
same,Clinical Observation,[3]; day 1,"For D1005, ptyalism was found 1 hr 20 min after dosing on day 1; also recorded: For D1001, soft feces were found 1 hr 45 min after dosing on day 1; also recorded: For D1005, about 4 mL white foamy mucoid vomitus was found 40 min; also recorded: For D1005, soft feces was found 1 hr after dosing on day 1; also recorded: For D1005, about 8 mL yellow foamy mucoid vomitus was found 1 hr"
same,Clinical Observation,[3]; day 3,"For D1005, 20 mL chyme was found 45 min after dosing on day 3; also recorded: For D1005, soft feces was found 80 min after dosing on day 3; also recorded: For D1005, 20 mL liquid feces was found 3.5 hr after dosing on day 3; also recorded: For D1001, ptyalism was found 2 hr after dosing on day 3. 8 hr recover; also recorded: For D1001, 20 mL chyme and ptyalism were found 3.5 hr after dosing; also recorded: For D1002, 10 mL chyme was found 55 min after dosing on day 3; also recorded: For D1002, 10 mL liquid feces and ptyalism were found 80 min after; also recorded: For D1002, ptyalism was found 2 hr after dosing on day 3. 8 hr recover; also recorded: For D1003, ptyalism was found 2 hr after dosing on day 3. 8 hr recover; also recorded: For D1003, 10 mL chyme, 5 mL liquid feces and ptyalism were found; also recorded: For D1003, 10 mL liquid feces and ptyalism were found 4 hr after; also recorded: For D1004, 15 mL chyme and soft feces were found 55 min after dosing; also recorded: For D1004, 2 mL liquid feces and ptyalism were found 80 min after; also recorded: For D1004, 20 mL chyme was found 90 min after dosing on day 3; also recorded: For D1004, ptyalism was found 2 hr after dosing on day 3. 8 hr recover; also recorded: For D1001, 10 mL chyme was found 55 min after dosing on day 3"
same,Clinical Observation,[3]; day 4,"For D1005, 15 mL chyme was found 40 min after dosing on day 4; also recorded: For D1005, 10 mL chyme and 10 mL liquid feces were found 2 hr after; also recorded: For D1001, 15 mL chyme was found 2 hr after dosing on day 4; also recorded: For D1001, ptyalism and 15 mL liquid feces were found 3 hr after; also recorded: For D1002, 15 mL chyme and 10 mL liquid feces were found 2 hr after; also recorded: For D1002, ptyalism and 5 mL liquid feces were found 3 hr after dosing; also recorded: For D1003, soft feces was found 3 hr after dosing on day 4; also recorded: For D1004, ptyalism was found 2 hr after dosing on day 4; also recorded: For D1004, 8 mL liquid feces was found 3 hr after dosing on day 4; also recorded: For D1004, soft feces was found 220 min after dosing on day 4"
same,Clinical Observation,[3]; day 5,"For D1003, 5 mL chyme was found 2 hr after dosing on day 5."
same,Clinical Observation,[3]; day 6,"For D1005, 15 mL chyme, 30 mL liquid feces and ptyalism were found; also recorded: For D1005, 15 mL chyme was found 2 hr after dosing on day 6; also recorded: For D1001, ptyalism was found 30 min after dosing on day 6. 8 hr; also recorded: For D1001, ptyalism and soft feces were found 1 hr after dosing on day 6; also recorded: For D1002, ptyalism was found 30 min after dosing on day 6. 8 hr; also recorded: For D1002, 10mL liquid feces and ptyalism were found 1 hr after dosing; also recorded: For D1002, 20 mL chyme, 10 mL liquid feces and ptyalism were found; also recorded: For D1003, ptyalism was found 30 min after dosing on day 6. 8 hr; also recorded: For D1003, 30 mL liquid feces, ptyalism and tremor were found 2 hr; also recorded: For D1003, 10 mL chyme was found 3 hr after dosing on day 6; also recorded: For D1004, 10 mL liquid feces and ptyalism were found 1 hr after; also recorded: For D1004, 5 mL chyme was found 3 hr after dosing on day 6"
same,Clinical Observation,[3]; day 7,"For D1005, about 8 mL liquid feces was found 2 hr after dosing on day 7; also recorded: For D1001, ptyalism was found 1 hr after dosing on day 7. 4 hr recover; also recorded: For D1001, miosis was found 1 hr after dosing on day 7. 8 hr recover; also recorded: For D1001, about 5 mL liquid feces and about 3 mL yellow liquid; also recorded: For D1002, ptyalism was found 1 hr after dosing on day 7. 4 hr recover; also recorded: For D1003, ptyalism was found 1 hr after dosing on day 7. 4hr recover; also recorded: For D1003, about 10 mL liquid feces was found 2 hr after dosing on day 7; also recorded: For D1004, ptyalism was found 1 hr after dosing on day 7. 4 hr recover; also recorded: For D1004, about 3 mL yellow liquid vomitus was found 1 hr after"
same,subjects who reported TEAEs,"[4]; Group 1, 1 mg, placebo 50.0%",~33.3%
same,subjects who reported TEAEs,"[4]; Group 1, 3 mg, placebo 50.0%",About 50.0%
same,subjects who reported TEAEs,"[4]; Group 1, 10 mg, placebo 50.0%",About 50.0%
same,subjects who reported TEAEs,"[4]; Group 1, 20 mg, placebo 50.0%",About 50.0%
same,subjects who reported TEAEs,"[4]; Group 1, 40 mg, placebo 50.0%",~83.3%
same,subjects who reported TEAEs,"[4]; Group 1, 60 mg, placebo 50.0%",~100%
same,"deaths, serious TEAEs, discontinuations","[4]; Group 1, 1-60 mg single oral dose","no deaths or serious TEAEs reported, and no subjects discontinued the study due to a TEAE"
same,total treatment-emergent adverse events (TEAEs),"[4]; Group 1, 36 subjects who received any dose of compound 1 (1-60 mg single oral)",95
same,subjects with TEAEs (number of the 36 subjects),"[4]; Group 1, any dose of compound 1",22
same,subjects with TEAEs,"[4]; Group 1, any dose of compound 1, of the 36 subjects",61.6%
same,day of onset of TEAEs (Day 1 = day of dosing),[4]; [7],1 days
same,"deaths, serious or severe TEAEs",[4]; [7],"no deaths, serious or severe TEAEs reported"
same,most frequent TEAEs observed,[4]; [7],salivary hypersecretion and dizziness
same,number of TEAEs reported,[4]; [7],9
same,subjects who reported TEAEs,[4]; [7],100.0%
same,MTD of Compound 1 when administered alone,"[4]; single oral dose, healthy subjects",40 mg
same,safety and tolerability,"[4]; single oral doses ranging from 1 mg to 40 mg, healthy subjects",generally safe and well tolerated
same,anti-parkinsonian benefit of L-DOPA and overall duration of on-time,MPTP-Induced Dyskinesia; Compound 1 1 mg/kg PO with high-dose L-dopa,no reduction
same,decrease in the duration of ‘bad’ on-time (on-time associated with disabling dyskinesia),MPTP-Induced Dyskinesia; [8],41%
same,"increase in the duration of ‘good’ on-time (lack of, or only non-disabling dyskinesia)",MPTP-Induced Dyskinesia; [8],143%
same,reduction of median levels of dyskinesia during the 0-1 h period,"MPTP-Induced Dyskinesia; Compound 1 1 mg/kg PO with high-dose L-dopa, vs vehicle, P<0.001",91%
same,reduction of median levels of dyskinesia cumulated over the 0-2 h period,"MPTP-Induced Dyskinesia; Compound 1 1 mg/kg PO with high-dose L-dopa, vs vehicle, P=0.0156",42%
same,median levels of dyskinesia during the 0-1 h period,"MPTP-Induced Dyskinesia; Compound 1 1 mg/kg PO with high-dose L-dopa, vehicle 11",1
same,median levels of dyskinesia cumulated over the 0-2 h period,"MPTP-Induced Dyskinesia; Compound 1 1 mg/kg PO with high-dose L-dopa, vehicle 33",19
same,animals with a robust reduction in LID,"MPTP-Induced Dyskinesia; Compound 1 1 mg/kg PO, seven animals in final analyses",six of the seven animals
same,change in salivation with dose,salivation,increase in salivation was observed with increasing dose
same,"increase in exposure of Compound 1 following co-administration of fesoterodine fumarate, AUC0-inf",[5]; [9],29.0%
same,"increase in exposure of Compound 1 following co-administration of fesoterodine fumarate, AUC0-t",[5]; [9],30.0%
same,"increase in exposure of Compound 1 following co-administration of fesoterodine fumarate, Cmax","[5]; Group 2, 40 mg Compound 1, 8 mg fesoterodine fumarate, p-value: 0.0347",50.0%
same,"compound 1 concentration in CSF at 1hour post-dose, mean","[5]; human, in vivo, 1 h",50.30 ng/mL
same,mean compound 1 concentration in CSF at 1 hour post-dose,"[5]; human, in vivo, 1 h",56.96 ng/mL
same,Tmax,"[5]; human, in vivo, single oral doses, healthy subjects, read-out: median tmax",39 to 70.2 min
